From PubChem BioAssay (NCI)
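Assay format: 96-well plates, 48-hour exposure. The concentration for 50% growth inhibition is given as GI50. The concentration for full growth arrest is given as TGI.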

Legend:
Experiment in all cases: NCI tumour cell line growth inhibition, 48 h
BT-549 breast = system: BT-549 breast
HS 578T breast = system: HS 578T breast
K-562 leukemia = system: K-562 leukemia
NCI/ADR-RES ovarian = system: NCI/ADR-RES ovarian
T-47D breast = system: T-47D breast
UACC-257 melanoma = system: UACC-257 melanoma
SK-MEL-5 melanoma = system: SK-MEL-5 melanoma

| Compound | GI50 (BT-549 breast) [µM] | TGI (BT-549 breast) [µM] | GI50 (HS 578T breast) [µM] | TGI (HS 578T breast) [µM] | GI50 (K-562 leukemia) [µM] | TGI (K-562 leukemia) [µM] | GI50 (NCI/ADR-RES ovarian) [µM] | TGI (NCI/ADR-RES ovarian) [µM] | GI50 (T-47D breast) [µM] | TGI (T-47D breast) [µM] | GI50 (UACC-257 melanoma) [µM] | TGI (UACC-257 melanoma) [µM] | GI50 (SK-MEL-5 melanoma) [µM] | TGI (SK-MEL-5 melanoma) [µM] |
| --- | --- | --- | --- | --- | --- | --- | --- | --- | --- | --- | --- | --- | --- | --- |
| COC(=O)/C(=C\c1c(C)[nH]c2ccccc12)S(=O)(=O)c1ccccc1 | 5.4 | 25.5 | 2.85 | 13.6 | > 100 | > 100 | 4.19 | 67.7 | 3.21 | 16.6 | 6.97 | 20.9 |  |  |
| COc1cc2c(/C=C3/C(=O)Nc4ccccc43)c(Cl)n(Cc3ccccc3[N+](=O)[O-])c2cc1C | 9.16 | 27.8 | 15 | 94 |  |  | 4.71 | 20.3 | 4.11 | 21.8 | 17.7 | 85.5 | 5.02 | 19.6 |
| O=c1cc(-c2ccccc2)nc2n1CCN2Cc1ccccc1 | 26.6 | 67.2 | 26.9 | 81.7 | 34.7 | 90.3 |  |  | 65 | > 100 | 37.1 | > 100 | 19.9 | 37.4 |
| CC1(C)N=C(N)N=C(N)N1c1cc(Cl)ccc1Cl | > 100 | > 100 |  |  | 55.3 | > 100 | > 100 | > 100 | > 100 | > 100 | > 100 | > 100 | > 100 | > 100 |
| O=C1OC(=O)C2C1C1(c3ccccc3)C(c3ccccc3)=C(c3ccccc3)C2(c2ccccc2)S1=O (stereo unspecified) | 26.3 | > 100 |  |  | 78.2 | > 100 | > 100 | > 100 | > 100 | > 100 | > 100 | > 100 | > 100 | > 100 |
| O=C(Nc1ccc(Cl)cc1)c1cc2ccccc2cc1O |  |  | 2.68 | 11.9 | 3.02 | > 100 | 2.81 | > 100 | 1.11 | 9.49 | 3.25 | 7.91 | 1.84 | 5.51 |
| CC[N+](CC)(CC)CCCn1c2c(c3ccccc3c1=O)C(=O)c1ccccc1-2 |  |  |  |  | 18.7 | > 100 | 6.5 | 27.2 | 98.1 | > 100 | 12.3 | 36.3 | 1.43 | 5.91 |
| C=C(CN1CCc2ccccc2C1)c1ccc(C(=O)Nc2ccc(N)cc2)cc1 |  |  | 29.8 | > 100 | 1.94 | > 100 | 19.1 | > 100 | 11.1 | 41.7 | 20.2 | 59.7 | 16.3 | 30.9 |
| Cc1nc2cccc(NCc3ccc(C(=O)NO)cc3)c2c(=O)n1-c1ccccc1 | 2.8 | 8.1 | 3.04 | > 100 | 2.52 | > 100 | 1.53 | 7.16 |  |  | 2.11 | 4.98 | 1.64 | 3.1 |
| CN(C)CCCNC(=O)c1cc(NC(=O)c2cc(NC(=O)c3cc(NC(=O)CCc4c[nH]c5ccccc45)cn3C)cn2C)cn1C | > 100 | > 100 | 0.0701 | > 100 | > 100 | > 100 | > 100 | > 100 |  |  | > 100 | > 100 | > 100 | > 100 |
| O=C1C=Cc2ccccc2/C1=C/c1[nH]c(=O)[nH]c1O | 6.75 | 96.3 |  |  | 2.85 | 34 | 20.3 | > 100 | 2.5 | 25.6 | 2.93 | > 100 | 2.84 | 13 |
| O=C(Oc1ccc(CCl)cc1)c1ccccc1 | 0.154 | 0.295 | 0.121 | 0.438 |  |  | 0.2 | 0.472 |  |  | 0.196 | 0.503 | 0.447 | 1.64 |
| COC(=O)C(Nc1ccc(OC)cc1)c1ccccc1 (stereo unspecified) |  |  |  | > 100 |  | > 100 |  | > 100 |  | > 100 |  | > 100 |  | > 100 |
| O=C1C(=O)c2ccccc2C(O)=C1C(CCc1ccccc1)C1=C(O)c2ccccc2C(=O)C1=O |  | > 100 |  | > 100 |  |  |  | > 100 |  | > 100 |  | 66.7 |  | 30.9 |
| C/C=C(\C)C(=O)O[C@H]1C=CC(=O)O[C@H]1CNC(=O)[C@H](C)O |  |  | 18.6 | 47.2 | 22.3 | > 100 | 26.2 | 81.4 | 20 | 73.9 | 17.1 | 37.6 | 17 | 31.3 |
| COc1ccc2[nH]c(Cl)c(/C=C3/C(=O)N(C)c4ccccc43)c2c1 | > 100 | > 100 | > 100 | > 100 |  |  | > 100 | > 100 | 13.1 | 63.4 | > 100 | > 100 | 69.3 | > 100 |
